Results: patent US7700352B2, “Composition for culturing mouse pluripotent stem cells” (Riken, priority 2002, dated 2010)
No end group written: not given here.

Key:
[1] = tested on: feeder cell-independent ES cells (E14tg2a, CGR8); experiment: Formation of colonies of undifferentiated ES cells in medium free of serum and feeder cells (GMEM + LIF + 2-ME + KSR), Leischman staining; assay type: cell-based, mouse; settings: for relative potency of the colony-forming capability: comparison among candidate peptides / ACTH fragments; for capability to form a colony of undifferentiated cells: peptide at 1 μM in medium with LIF + 2-ME + KSR
Method: One hundred of the feeder cell-independent ES cells (E14tg2a (Hooper, M. et al., Nature, 325, 292 (1987)), CGR8 (Mountford, P. et al., Proc. Natl. Acad. Sci. USA, 91, 4303 (1994)), and ES cells derived therefrom) were incubated on the gelatinated 12-well plate treated with a 0.1% (w/v) gelatin solution at 37° C. in 5% CO2 in one ml of a culture medium of Glasgow minimum essential medium (GMEM; Sigma) used as a cell culture minimum medium supplemented with (1) 1×10^3 U/ml LIF (ESGRO, Invitrogen), (3) 0.1 μM 2-mercaptoethanol (Nacalai Tesque), and (5) 10% (v/v) KSR (Invitrogen) per well.
Five days or more after the incubation, the supernatant was removed by aspiration, and then a Leischman staining liquid (1.5 g Leischman Staining: Sigma/L methanol) was added to the plate until the liquid covered all of the surface of the plate. The plate was left at room temperature for 10 minutes, and rinsed with water (Leischman staining). For the blue-stained colonies, no formation of colonies that maintained their morphology in an undifferentiated state was shown by the naked eye and light microscopy (FIG. 1 (g)). When the ES cells were incubated in a culture medium wherein the medium described above was supplemented with 0.3% (v/v) FCS (2), an average of 17 colonies of undifferentiated cells was observed (FIG. 1 (d)). […] Further, a formation of colonies of undifferentiated cells was observed when the ES cells were incubated at 1000 or more per well in the culture medium having the same composition ((1)+(3)+(5)). When the conditioned medium (CM) was added to a culture medium at a final concentration of 10% (v/v), and 100 ES cells per well were incubated therein, then an average of 7 colonies of undifferentiated cells was observed (FIG. 1 (f)).
Subsequently, a candidate peptide that had been selected from diverse known growth factors, cytokines, peptide hormones and the like, was added to the culture medium comprising (1)+(3)+(5), and the ES cells were incubated therein at 37° C. in 5% CO2 so that a capability of the candidate to form a colony of undifferentiated cells was determined. […] It should be noted that FIG. 1 (a) to (c) show the results obtained from the medium consisting of GMEM, LIF and 2-ME, supplemented with FCS+feeder cells, KSR+feeder cells, and FCS, respectively.
In a similar manner to the above, ACTH and the fragments thereof were added to the culture medium at a final concentration of 1 μM wherein (1) LIF, (3) 2-ME, and (5) KSR were supplemented to a cell culture minimum medium.
ACHT has been known to activate an ACTH receptor belonging to G-protein-coupled receptor families, which receptor activates an adenylate cyclase activity through the activation of trimeric G proteins containing the Gα s subunit. Now, to a cell culture minimum medium supplemented with (1) 1×10^3 U/ml LIF, (3) 0.1 μM 2-ME, (5) 10% (v/v) KSR, and (6) 10 μM ACTH, an inhibitor of an adenylate cyclase activity, SQ22536 (9-(tetrahydro-2-furanyl)adenine) (Sigma) at 100 μM, was further added, and the resultant medium was used to culture the ES cells in a similar manner to that of Example 1.
In order to check the effect of sole SQ22536, a cell culture minimum medium supplemented with (1) 1×10^3 U/ml LIF, (3) 0.1 μM 2-ME, (5) 10% (v/v) KSR, and (7) SQ22536 100 μM was used to culture the ES cells in a similar manner to that of Example 1. As a result, an average of nine colonies of undifferentiated cells was observed. Further, even when the medium added with another inhibitor of an adenylate cyclase activity, 2′,5′-dideoxyadenosine (Sigma) 500 μM, was used, an average of eight colonies of undifferentiated cells was observed. […]

[2] = tested on: ES cells injected into the mouse blastocyst; experiment: Chimeric mouse production from ES cells injected into the mouse blastocyst (retention of pluripotency); assay type: in vivo; settings: ES cells cultured with 1 nM adrenocorticotropic hormone
Method: The undifferentiated ES cells derived from the colonies obtained by the culture with 1 nM adrenocorticotropic hormone in Example 1 as described above were further subcultured twice, and the resultant cells were injected into the mouse blastocyst to complete the transplantation into the pseudopregnant mouse uterus.

[3] = tested on: inner cell masses of C57BL/6 blastocysts; experiment: Establishment of ES cell lines from inner cell masses of blastocysts in serum-free, feeder-free medium; assay type: cell-based, mouse; settings: 10 μM ACTH, LIF, 2-ME, KSR, fibronectin-coated plate; thirty C57BL/6 embryos
Method: Thirty embryos at blastocyst stage of 3.5 days old were removed from C57BL/6 inbred mouse strains, and the inner cell masses isolated from the embryos by immunosurgery were individually incubated in the culture medium consisting of CCMM, (1) 1×10^3 U/ml LIF, (3) 0.1 μM 2-ME, 0.1 mM non-essential amino acids, 1 mM sodium pyruvate, (5) 10% (v/v) KSR, and (6) 10 μM ACTH on a plate coated with fibronectin.

[4] = SQ22536 100 μM added to medium with 10 μM ACTH, 7th day
[5] = 10 μM ACTH (1-24), compared with 0.3% FCS or 10% CM
[6] = pertussis toxin 100 ng/ml added to medium with 10 μM ACTH

C[C@H]1O[C@@H](n2cnc3c(N)ncnc32)C[C@@H]1O [2′,5′-dideoxyadenosine]
average number of colonies of undifferentiated cells ([1]; 2′,5′-dideoxyadenosine 500 μM in LIF + 2-ME + KSR medium): eight

Nc1ncnc2c1ncn2C1CCCO1 (stereo not drawn) [SQ22536, 9-(tetrahydro-2-furanyl)adenine]
formation of colonies of undifferentiated cells [1, 4]: no formation of colonies of undifferentiated cells was unexpectedly inhibited | size of individual colonies [1, 4]: significantly increased | average number of colonies of undifferentiated cells ([1]; SQ22536 100 μM alone (no ACTH) in LIF + 2-ME + KSR medium): nine

ACTH (1-24): fragment of ACTH, amino acids from the N-terminus 1 to 24
cell proliferation rate [1, 5]: equivalent to that in the case of 0.3% FCS or 10% CM | formation rate of undifferentiated cell colonies [1, 5]: equivalent to that in the case of 0.3% FCS or 10% CM | relative potency of the colony-forming capability [1]: most potent capability among the fragments having a capability | formation of the colony of undifferentiated cells ([1]; final concentration of 0.1 μM): showed the formation of the colony of undifferentiated cells | capability to form a colony of undifferentiated cells [1]: showed to have the capability

ACTH (11-24): fragment of ACTH, amino acids 11 to 24 (KPVGKKRRPVKVYP; Corticotropin; UniProt P01189 148-161, looked up, fragment)
capability to form a colony of undifferentiated cells [1]: showed to have the capability

ACTH (18-39): fragment of ACTH, amino acids 18 to 39 (RPVKVYPNGAEDESAEAFPLEF; Corticotropin; UniProt P01189 155-176, looked up, fragment)
capability to form a colony of undifferentiated cells [1]: showed to have no capability

adrenocorticotropic hormone (SYSMEHFRWGKPVGKKRRPVKVYPNGAEDESAEAFPLEF; Corticotropin; UniProt P01189 138-176, looked up) [ACTH, peptide hormone composed of 39 amino acid residues (ACTH (1-39))]
relative potency of the colony-forming capability [1]: the capability at the lowest concentration among the candidate peptides | capability to form a colony of undifferentiated cells ([1]; listed as ACTH (1-39)): showed to have the capability | capability to form a colony of undifferentiated cells ([1]; listed as adrenocorticotropic hormone): formation of colonies of undifferentiated ES cells having the apparent morphology was observed | chimeric mice with an ES cell contribution ratio of 70% or more (hair color) [2]: 17 litters | contribution of the ES cells to the germ cell line (inbreeding) [2]: the inbreeding showed the contribution of the ES cells to the germ cell line | female litters among the 17 chimeric litters [2]: 14 litters | litters survived three weeks or more after birth [2]: 30 litters | litters produced from 100 transplanted embryos ([2]; subcultured twice, injected into blastocyst): 33 litters | inner cells that initiated proliferation and finally established ES cell lines [3]: at least two

brain natriuretic peptide
capability to form a colony of undifferentiated cells [1]: formation of colonies of undifferentiated ES cells having the apparent morphology was observed

pertussis toxin
effect of ACTH on colony formation [1, 6]: the effect of ACTH was inhibited | size of the colonies of undifferentiated cells [1, 6]: drastically decreased

pituitary adenylate cyclase activating polypeptide (HSDGIFTDSYSRYRKQMAVKKYLAAVLGKRYKQRVKNK; ends and bridges not checked; UniProt P18509 132-169, looked up)
capability to form a colony of undifferentiated cells [1]: formation of colonies of undifferentiated ES cells having the apparent morphology was observed
